Results taken from publication PMC3761967 (Bioorganic & medicinal chemistry, 2012).
Where no end group is shown, it is not given here. The star is where a group is joined. Dansyl = CN(C)c1cccc2c(S(=O)(=O)*)cccc12

Tests used:
[1] = system: Ras processing in ras-transformed NIH3T3; conditions: cited from earlier work
Ras/ERK1/2 pathway = conditions: rats; cited from earlier work
recombinant human FTase = conditions: cited from earlier work
Ha-Ras = conditions: murine ischemic stroke model; cited from earlier work
[2] = system: membrane-bound Ha-Ras / Ki-Ras; conditions: cited from earlier work
tobacco BY-2 cells = conditions: cited from earlier work
rubber transferase = rubber transferase from Hevea Brasiliensis; cited from earlier work
[3] = system: PBP1b (penicillin-binding protein 1b); conditions: cited from earlier work
[4] = mild basic conditions (pH=7.5), hydrolysed to dicarboxylate anion 2; ref 10a; cited from earlier work
yeast FTase = target: T1, yeast FTase (Saccharomyces cerevisiae, UniProt P22007+P29703); assay: Yeast FTase continuous fluorescence assay; type: biochemical; conditions: yeast FTase IC50, 27 vs 2
T1 sequence (P29703 1-316): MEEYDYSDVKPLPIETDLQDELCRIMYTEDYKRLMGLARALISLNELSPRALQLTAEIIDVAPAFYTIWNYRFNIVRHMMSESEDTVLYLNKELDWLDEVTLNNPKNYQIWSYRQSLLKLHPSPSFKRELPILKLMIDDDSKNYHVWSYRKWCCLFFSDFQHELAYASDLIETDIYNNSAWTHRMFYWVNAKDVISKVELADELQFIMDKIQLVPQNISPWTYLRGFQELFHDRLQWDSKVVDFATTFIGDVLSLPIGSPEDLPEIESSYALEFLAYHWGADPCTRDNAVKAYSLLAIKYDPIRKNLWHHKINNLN
T1 sequence (P22007 1-431): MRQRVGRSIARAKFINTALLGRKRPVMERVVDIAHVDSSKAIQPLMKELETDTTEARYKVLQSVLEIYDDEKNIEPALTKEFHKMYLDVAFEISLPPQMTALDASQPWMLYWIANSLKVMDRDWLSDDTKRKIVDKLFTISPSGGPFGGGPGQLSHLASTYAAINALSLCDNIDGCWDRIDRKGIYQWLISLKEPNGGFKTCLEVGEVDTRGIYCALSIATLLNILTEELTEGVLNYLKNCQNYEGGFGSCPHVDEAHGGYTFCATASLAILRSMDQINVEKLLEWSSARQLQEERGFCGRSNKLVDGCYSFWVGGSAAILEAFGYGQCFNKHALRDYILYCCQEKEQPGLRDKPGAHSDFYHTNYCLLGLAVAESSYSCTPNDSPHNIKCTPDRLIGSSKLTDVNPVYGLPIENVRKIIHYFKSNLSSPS

wild FTase = conditions: peptide substrate; cited from earlier work

For `CCCCCCCCCCCCCC/C(C(=O)O)=C(\C)C(=O)O` [compound 1, chaetomellic acid A], the “Inhibition of Ras processing” value [1] is given as “did not inhibit”, the “Effect on acute ischemia-reperfusion injury (renal function and histology)” value (Ras/ERK1/2 pathway) is given as “beneficial effect” and the “Mode of FTase inhibition towards the acceptor peptide Ras” value (recombinant human FTase; diacid anion of 1) is given as “noncompetitive”. For the same molecule, the “Mode of FTase inhibition with respect to farnesyl pyrophosphate (FPP)” value (recombinant human FTase; diacid anion of 1) was “highly competitive”, the “Production of superoxide anion and volume of cerebral necrotic tissue” value (Ha-Ras) was “significantly reducing” and the “Effect on membrane-bound Ha-Ras” value [2] was “selectively inhibited”. The “Effect on membrane-bound Ki-Ras” value [2] was “did not alter”, the “Effect on cell cycle progression” value (tobacco BY-2 cells) was “specific arrest in the cell cycle” and the “Inhibition of rubber biosynthesis in vitro” value (rubber transferase) was “able to inhibit”. The “Reduction of PBP1b activity” value [3] was “modest potency”.
In the case of `CCCCCCCCCCCCCC/C(C(=O)O)=C(\C)C(=O)O` [compound 2], the IC50 (recombinant human FTase; read-out: IC50 recombinant human FTase, dianionic form) is listed as 55 nM.
In the case of `CCCCCCCCCCCCCCC1=C(C)C(=O)OC1=O` [compound 3, chaetomellic anhydride A], the “Stability of the cyclic (anhydride) form” value [4] is given as “unstable”.
In the case of `CCCCSCCCCCCCCC/C(C(=O)[O-])=C(\C)C(=O)[O-].[Na+].[Na+]` [compound 27, disodium salt of 2-(9-(butylthio)nonyl)-3-methylmaleic acid], the “times more potent than ACA” value (yeast FTase) is reported as “approximately 5”.
For “dansyl-Gly-Cys-Val-Ile-Ala (Dansyl-GCVIA)”, the kcat (wild FTase) is given as greater than 0.2 s⁻¹.
For “dansyl-Gly-Cys-Val-Leu-Ser (Dansyl-GCVLS)”, the kcat (wild FTase) is listed as 0.4 s⁻¹.
